Consider 4 compounds from US12390437B2, “Itaconic acid derivatives and uses thereof intreating an inflammatory disease or a disease associated with an undesirable immune response” (Sitryx Therapeutics Limited, priority 2019, dated 2025).

Molecules are shown by their SMILES. Read-outs that look alike come from different tables or passages of the source.

Data set [1] concerns IL-1β cytokine output from THP-1s. In words: THP-1 AlphaLISA IL-1β cytokine assay. The format is cell-based, human. The note with it: Homo sapiens, read-out: IL-1β (IC50). In short, it runs like this: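 Percent inhibition, normalised to plus- and minus-LPS controls, was plotted against concentration to derive IC50. Differentiated THP-1 cells received compound 30 min ahead of LPS (24 h) and a 1 h nigericin pulse; AlphaLISA quantified supernatant cytokine.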
For orientation: In Alpha technology, singlet oxygen from a donor bead excites a nearby acceptor bead.

A short description of data set [2]: Mouse pharmacokinetic study, intravenous dosing. It is filed as in vivo. The note with it: male, C57BL/6, mouse, iv, plasma, 10 mg/kg i.v., read-out: Parent compound concentration following intravenous administration. In short, it runs like this: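 Male C57BL/6 mice (6-8 weeks, fed ad libitum) received 10 mg/kg IV by tail vein in 10% DMSO/HP-β-CD vehicle, or 100 mg/kg by oral gavage in DMSO/HPMC/Tween 80. Facial-vein blood was taken at 9 time points (N=3 each) into K2EDTA; plasma concentrations were measured by LC-MS/MS.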

Data set [3] in a line: Mouse pharmacokinetic study, oral administration. The format is in vivo. The note with it: for concentration at 0.083 h / concentration at 0.25 h / concentration at 0.5 h / concentration at 1 h / concentration at 2 h / concentration at 4 h / concentration at 6 h / concentration at 8 h / concentration at 24 h: male. As to the method:
Pharmacokinetic studies were carried out in 6-8-week-old male C57BL/6 mice having free access to food and water. Intravenous dosing was conducted at 10 mg/kg (5 mL/kg; vehicle: 10% DMSO-90% (25% HP-13-CD in water)) via tail vein injection, with sampling at 3 min, 8 min, 15 min, 30 min, 1, 2, 4, 6 and 8 hours, i.e., 9 time points in total (N=3/time point), using semi-serial bleeding for plasma. Oral compound administration, via gavage, was carried out at 100 mg/kg (10 mL/kg; vehicle: 5% DMSO-95% (0.5% HPMC+0.1% Tween 80 in water)), with sampling at 5 min, 15 min, 30 min, 1, 2, 4, 6, 8 and 24 hours, i.e., 9 time points in total (N=3/time point), using semi-serial bleeding for plasma.
For both intravenous and oral routes, the mice were restrained manually at the designated time points, with ca. 110 μL of blood being taken into K2EDTA tubes via the facial vein. Blood samples were put on ice and centrifuged to obtain plasma samples from which the concentration at each time point was measured by LC-MS/MS.

Setting [4] is: THP-1, PMA-differentiated THP-1 cells, LPS 24 hr then Nigericin 1 hour.
Where [5] appears, read: C57BL/6, mouse, plasma, po, 100 mg/kg, plasma, male C57BL/6 mice, oral gavage 100 mg/kg, 0.083 h, read-out: Parent compound concentrations following oral administration, Time 0.083 h.
Where [6] appears, read: C57BL/6, mouse, plasma, po, 100 mg/kg, plasma, male C57BL/6 mice, oral gavage 100 mg/kg, 0.25 h, read-out: Parent compound concentrations following oral administration, Time 0.25 h.
The mark [7] stands for this setting: C57BL/6, mouse, plasma, po, 100 mg/kg, plasma, male C57BL/6 mice, oral gavage 100 mg/kg, 0.5 h, read-out: Parent compound concentrations following oral administration, Time 0.5 h.
Where [8] appears, read: C57BL/6, mouse, plasma, po, 100 mg/kg, plasma, male C57BL/6 mice, oral gavage 100 mg/kg, 1 h, read-out: Parent compound concentrations following oral administration, Time 1 h.
[9] abbreviates: C57BL/6, mouse, plasma, po, 100 mg/kg, plasma, male C57BL/6 mice, oral gavage 100 mg/kg, 2 h, read-out: Parent compound concentrations following oral administration, Time 2 h.
The mark [10] stands for this setting: C57BL/6, mouse, plasma, po, 100 mg/kg, plasma, male C57BL/6 mice, oral gavage 100 mg/kg, 4 h, read-out: Parent compound concentrations following oral administration, Time 4 h.
Where [11] appears, read: C57BL/6, mouse, plasma, po, 100 mg/kg, plasma, male C57BL/6 mice, oral gavage 100 mg/kg, 6 h, read-out: Parent compound concentrations following oral administration, Time 6 h.
Where [12] appears, read: C57BL/6, mouse, plasma, po, 100 mg/kg, plasma, male C57BL/6 mice, oral gavage 100 mg/kg, 8 h, read-out: Parent compound concentrations following oral administration, Time 8 h.
Setting [13] is: C57BL/6, mouse, plasma, po, 100 mg/kg, plasma, male C57BL/6 mice, oral gavage 100 mg/kg, 24 h, read-out: Parent compound concentrations following oral administration, Time 24 h.

One may read the IC50 as the concentration that gives 50% inhibition. In the case of `C=C(CC(=O)OC1CCCCCCC1)C(=O)OC(C)c1nnn[nH]1` (stereo not drawn) [Example 133, 1-(1-(1H-tetrazol-5-yl)ethyl) 4-cyclooctyl 2-methylenesuccinate], the IC50 in data set [1] (setting [4]) came to 14.8 µM. For the same compound, in data set [2], the concentration at 0.05 h came to 11000 ng/mL, the concentration at 0.133 h was determined as 4570 ng/mL, the concentration at 0.25 h came to 1950 ng/mL and the concentration at 0.5 h came to 315 ng/mL. Moreover, in data set [2], the concentration at 1 h turned out to be 33 ng/mL, the concentration at 2 h is below 8 ng/mL, the concentration at 4 h was below 8 ng/mL and the concentration at 6 h is below 8 ng/mL. Further, in data set [2], the concentration at 8 h was below 8 ng/mL. Also, the concentration at 0.083 h in data set [3] (setting [5]) was found to be 9360 ng/mL. Further, the concentration at 0.25 h in data set [3] (setting [6]) stood at 9940 ng/mL. Moreover, the concentration at 0.5 h in data set [3] (setting [7]) came to 4270 ng/mL. In addition, the concentration at 1 h in data set [3] (setting [8]) is 1100 ng/mL. In data set [3] (setting [9]), the concentration at 2 h came to 527 ng/mL. Besides, the concentration at 4 h in data set [3] (setting [10]) was 799 ng/mL. The concentration at 6 h in data set [3] (setting [11]) is 146 ng/mL. In addition, the concentration at 8 h in data set [3] (setting [12]) came to 101 ng/mL. Further, the concentration at 24 h in data set [3] (setting [13]) was below 8 ng/mL.

As to `C=C(CC(=O)O[C@H](C)CCCCCC)C(=O)OCC(=O)O` [Example 112, (R)-2-((2-methylene-4-(octan-2-yloxy)-4-oxobutanoyl)oxy)acetic acid], the IC50 was determined as 14.6 µM in data set [1] (setting [4]) and 14.6 µM in data set [1] (THP-1, Table 10, assay of Biological Example 1 (THP-1)). Moreover, the concentration at 0.05 h in data set [2] was determined as 63500 ng/mL. Besides, the concentration at 0.133 h in data set [2] is 40100 ng/mL. In addition, the concentration at 0.25 h in data set [2] was determined as 36200 ng/mL; in data set [3] (setting [6]) it was 64600 ng/mL; in data set [3] (C57BL/6, po, mouse plasma, Example 112 dosed orally at 100 mg/kg (Intermediate 8 = metabolite), time 0.25 h, read-out: Example 112 and Intermediate 8 concentrations following oral administration), 116000 ng/mL. In addition, the concentration at 0.5 h in data set [2] came out at 23500 ng/mL; in data set [3] (setting [7]) it was 72300 ng/mL; in data set [3] (C57BL/6, po, mouse plasma, Example 112 dosed orally at 100 mg/kg (Intermediate 8 = metabolite), time 0.5 h, read-out: Example 112 and Intermediate 8 concentrations following oral administration), 74200 ng/mL. For the same compound, the concentration at 1 h in data set [2] was found to be 13000 ng/mL; in data set [3] (setting [8]), 49500 ng/mL; in data set [3] (C57BL/6, po, mouse plasma, Example 112 dosed orally at 100 mg/kg (Intermediate 8 = metabolite), time 1 h, read-out: Example 112 and Intermediate 8 concentrations following oral administration), 27900 ng/mL. For the same compound, the concentration at 2 h was 3540 ng/mL in data set [2]; 31400 ng/mL in data set [3] (setting [9]); 14000 ng/mL in data set [3] (C57BL/6, po, mouse plasma, Example 112 dosed orally at 100 mg/kg (Intermediate 8 = metabolite), time 2 h, read-out: Example 112 and Intermediate 8 concentrations following oral administration). Moreover, the concentration at 4 h in data set [2] was determined as 1510 ng/mL; in data set [3] (setting [10]), 21300 ng/mL; in data set [3] (C57BL/6, po, mouse plasma, Example 112 dosed orally at 100 mg/kg (Intermediate 8 = metabolite), time 4 h, read-out: Example 112 and Intermediate 8 concentrations following oral administration) it was 4880 ng/mL. Moreover, the concentration at 6 h stood at 424 ng/mL in data set [2]; 6780 ng/mL in data set [3] (setting [11]); 4020 ng/mL in data set [3] (C57BL/6, po, mouse plasma, Example 112 dosed orally at 100 mg/kg (Intermediate 8 = metabolite), time 6 h, read-out: Example 112 and Intermediate 8 concentrations following oral administration). The concentration at 8 h in data set [2] was 154 ng/mL; in data set [3] (setting [12]), 12200 ng/mL; in data set [3] (C57BL/6, po, mouse plasma, Example 112 dosed orally at 100 mg/kg (Intermediate 8 = metabolite), time 8 h, read-out: Example 112 and Intermediate 8 concentrations following oral administration) it was 867 ng/mL. Besides, the concentration at 0.083 h in data set [3] (setting [5]) is 79800 ng/mL; in data set [3] (C57BL/6, po, mouse plasma, Example 112 dosed orally at 100 mg/kg (Intermediate 8 = metabolite), time 0.083 h, read-out: Example 112 and Intermediate 8 concentrations following oral administration), 109000 ng/mL. Besides, the concentration at 24 h in data set [3] (setting [13]) was 25 ng/mL; in data set [3] (C57BL/6, po, mouse plasma, Example 112 dosed orally at 100 mg/kg (Intermediate 8 = metabolite), time 24 h, read-out: Example 112 and Intermediate 8 concentrations following oral administration), below 8 ng/mL. Also, the Metabolism in vivo entry in data set [3] (mouse pharmacokinetic study, oral) is reported as “undergoes hydrolysis in vivo to form Intermediate 8”.

On to `C=C(CC(=O)OC1CCCCC1)C(=O)OCc1nnn[nH]1` [Example 125, 1-((2H-tetrazol-5-yl)methyl) 4-cyclohexyl 2-methylenesuccinate], for which the half-maximal inhibitory concentration (IC50) in data set [1] (setting [4]) came to 17 µM. In data set [2], the concentration at 0.05 h was 11900 ng/mL, the concentration at 0.133 h was found to be 3870 ng/mL, the concentration at 0.25 h came out at 1070 ng/mL and the concentration at 0.5 h was 346 ng/mL. In data set [2], the concentration at 1 h was found to be 38 ng/mL, the concentration at 2 h worked out at 3 ng/mL, the concentration at 4 h is below 0.8 ng/mL and the concentration at 6 h was below 0.8 ng/mL. Moreover, the concentration at 8 h in data set [2] was below 0.8 ng/mL. Besides, the concentration at 0.083 h in data set [3] (setting [5]) stood at 9360 ng/mL. Besides, the concentration at 0.25 h in data set [3] (setting [6]) turned out to be 4360 ng/mL. Also, the concentration at 0.5 h in data set [3] (setting [7]) stood at 2650 ng/mL. Besides, the concentration at 1 h in data set [3] (setting [8]) was 1430 ng/mL. Besides, the concentration at 2 h in data set [3] (setting [9]) amounted to 785 ng/mL. Besides, in data set [3] (setting [10]), the concentration at 4 h is 427 ng/mL. Also, the concentration at 6 h in data set [3] (setting [11]) was 163 ng/mL. The concentration at 8 h in data set [3] (setting [12]) is 15 ng/mL. In addition, the concentration at 24 h in data set [3] (setting [13]) is below 0.8 ng/mL.

For `C=C(CC(=O)OC(C)(C)CCCCCC)C(=O)OCC(=O)O` [Example 192, 2-((2-methylene-4-((2-methyloctan-2-yl)oxy)-4-oxobutanoyl)oxy)acetic acid], the half-maximal inhibitory concentration (IC50) in data set [1] (setting [4]) amounted to 10.6 µM. In addition, in data set [2], the concentration at 0.05 h amounted to 36600 ng/mL, the concentration at 0.133 h was determined as 21400 ng/mL, the concentration at 0.25 h stood at 11300 ng/mL and the concentration at 0.5 h turned out to be 2910 ng/mL. In data set [2], the concentration at 1 h amounted to 400 ng/mL, the concentration at 2 h came out at 86 ng/mL, the concentration at 4 h worked out at 26 ng/mL and the concentration at 6 h was below 4 ng/mL. The concentration at 8 h in data set [2] is below 4 ng/mL. The concentration at 0.083 h in data set [3] (setting [5]) was determined as 47000 ng/mL. For the same compound, the concentration at 0.25 h in data set [3] (setting [6]) came out at 60700 ng/mL. In addition, the concentration at 0.5 h in data set [3] (setting [7]) came out at 37900 ng/mL. In data set [3] (setting [8]), the concentration at 1 h is 25200 ng/mL. For the same compound, the concentration at 2 h in data set [3] (setting [9]) was found to be 8740 ng/mL. Also, the concentration at 4 h in data set [3] (setting [10]) turned out to be 5440 ng/mL. Also, the concentration at 6 h in data set [3] (setting [11]) was found to be 79 ng/mL. Also, in data set [3] (setting [12]), the concentration at 8 h came to 41 ng/mL. The concentration at 24 h in data set [3] (setting [13]) turned out to be 6.6 ng/mL.
